# Experimental data: patent US8071551B2, “Methods and compositions for treating diabetes” (BioHolding, Inc., priority 1999, dated 2011)
# Tests used:
# [1] = system: RCG Neuron (rat cerebral granule) cells; test: Apoptosis induced by depletion of serum in RCG neuron cells (Hoechst 33258 staining, fluorescence microscope); type: cell-based; details: BME without serum, 10 hours, Hoechst dye 33258
# Procedure: RCG neuronal cells are seeded into cell culture dishes in 400 μl cell culture medium (Eagle's basal medium, BME) containing 10% (v/v) FBS. At day two the now conditioned medium is removed and the cells are treated for 10 hours as follows:
# Then the medium is replaced with 4% (w/v) paraformaldehyde, incubated for 15 minutes at room temperature, and the cells stained with Hoechst dye 33258 (8 μg/ml) for 15 minutes at room temperature. The apoptosis in the cells is evaluated using a fluorescence microscope by an evaluator blinded to the method of treatment.
# [2] = system: Primary rat brain granule cells; test: Apoptosis associated with serum depletion in primary rat brain granule cells; type: cell-based; details: α1-antitrypsin 3.0 mg/ml, one hour pretreatment, medium devoid of fetal bovine serum, 24 hours of culture
# Procedure: Primary rat brain granule cells are pretreated for one hour in the absence or presence of α1-antitrypsin (3.0 mg/ml), followed by replacement of the cell culture medium with either control medium containing 10% (vol/vol) fetal bovine serum, medium devoid of fetal bovine serum, or medium devoid of fetal bovine serum but containing α1-antitrypsin.
compound,measurement,setting,value
"Cc1cccc(Cc2nnc(C(=O)[C@@H](NC(=O)[C@@H]3CCCN3C(=O)[C@@H](NC(=O)OCc3ccccc3)C(C)C)C(C)C)o2)c1 [CE-2072, benzyloxcarbonyl-L-valyl-N-[1-(2-[5-(3-methylbenzyl)-1,3,4-oxadiazolyl]carbonyl)-2-(S)-Methylpropyl]-L-prolinamide, reference compound]",apoptosis induced by depletion of serum,[1]; CE-2072 60 μM in DMSO,blocked
lyophilized α1-antitrypsin: lyophilized preparation of the serine protease inhibitor α1-antitrypsin,apoptosis induced by depletion of serum,[1]; lyophilized AAT 50 μM,blocked
α1-Antitrypsin: serine protease inhibitor α1-antitrypsin,apoptosis associated with serum depletion,[2],completely reverses
